Results taken from ChEMBL document CHEMBL4507303, “Data for DCP probe TP-004” (2021).

Legend:
[1] = biological target: Protein kinase C epsilon type (Homo sapiens) (UniProt Q02156); settings: Compound concentration 1000.0 nM
[2] = biological target: STE20-like serine/threonine-protein kinase (Homo sapiens) (UniProt Q9H2G2); settings: Compound concentration 1000.0 nM
[3] = biological target: Tyrosine-protein kinase Lyn (Homo sapiens) (UniProt P07948); settings: Compound concentration 1000.0 nM
[4] = biological target: Casein kinase I isoform gamma-2 (Homo sapiens) (UniProt P78368); settings: Compound concentration 1000.0 nM
[5] = biological target: Beta-adrenergic receptor kinase 1 (Homo sapiens) (UniProt P25098); settings: Compound concentration 1000.0 nM
[6] = biological target: Alpha-1B adrenergic receptor (Homo sapiens) (UniProt P35368); settings: Compound concentration 10.0 uM
[7] = biological target: Mitogen-activated protein kinase 8 (Homo sapiens) (UniProt P45983); settings: Compound concentration 1000.0 nM
[8] = biological target: Serine/threonine-protein kinase 25 (Homo sapiens) (UniProt O00506); settings: Compound concentration 1000.0 nM
[9] = biological target: Serine/threonine-protein kinase TAO1 (Homo sapiens) (UniProt Q7L7X3); settings: Compound concentration 1000.0 nM
[10] = biological target: Mitogen-activated protein kinase 6 (Homo sapiens) (UniProt Q16659); settings: Compound concentration 1000.0 nM
[11] = biological target: Mitogen-activated protein kinase kinase kinase 2 (Homo sapiens) (UniProt Q9Y2U5); settings: Compound concentration 1000.0 nM
[12] = biological target: Calcium/calmodulin-dependent protein kinase type 1 (Homo sapiens) (UniProt Q14012); settings: Compound concentration 1000.0 nM
[13] = tested on: Phosphatidylinositol 4,5-bisphosphate 3-kinase catalytic subunit alpha isoform (Homo sapiens), P42336 [H1047Y]; settings: Compound concentration 1000.0 nM
[14] = biological target: Serine/threonine-protein kinase MAK (Homo sapiens) (UniProt P20794); settings: Compound concentration 1000.0 nM
[15] = biological target: Calcium/calmodulin-dependent protein kinase kinase 2 (Homo sapiens) (UniProt Q96RR4); settings: Compound concentration 1000.0 nM
[16] = biological target: Muscarinic acetylcholine receptor M1 (Homo sapiens) (UniProt P11229); settings: Compound concentration 10.0 uM
[17] = biological target: Ribosomal protein S6 kinase alpha-2 (Homo sapiens) (UniProt Q15349); settings: Compound concentration 1000.0 nM
[18] = biological target: Cyclin-dependent kinase 4 (Homo sapiens) (UniProt P11802); settings: Compound concentration 1000.0 nM
[19] = biological target: Calcium/calmodulin-dependent protein kinase type II subunit delta (Homo sapiens) (UniProt Q13557); settings: Compound concentration 1000.0 nM
[20] = biological target: Calcium/calmodulin-dependent protein kinase type 1B (Homo sapiens) (UniProt Q6P2M8); settings: Compound concentration 1000.0 nM
[21] = biological target: Phosphatidylinositol 4,5-bisphosphate 3-kinase catalytic subunit alpha isoform (Homo sapiens) (UniProt P42336); settings: Compound concentration 1000.0 nM
[22] = biological target: Interleukin-1 receptor-associated kinase 4 (Homo sapiens) (UniProt Q9NWZ3); settings: Compound concentration 1000.0 nM
[23] = biological target: Serine/threonine-protein kinase WNK3 (Homo sapiens) (UniProt Q9BYP7); settings: Compound concentration 1000.0 nM
[24] = biological target: Dual specificity tyrosine-phosphorylation-regulated kinase 1B (Homo sapiens) (UniProt Q9Y463); settings: Compound concentration 1000.0 nM
[25] = biological target: Epidermal growth factor receptor (Homo sapiens) (UniProt P00533); settings: Compound concentration 1000.0 nM
[26] = tested on: Mast/stem cell growth factor receptor Kit (Homo sapiens), P10721 [V559D,T670I]; settings: Compound concentration 1000.0 nM
[27] = biological target: Casein kinase II subunit alpha' (Homo sapiens) (UniProt P19784); settings: Compound concentration 1000.0 nM
[28] = biological target: Tyrosine-protein kinase Fgr (Homo sapiens) (UniProt P09769); settings: Compound concentration 1000.0 nM
[29] = biological target: Serine/threonine-protein kinase NLK (Homo sapiens) (UniProt Q9UBE8); settings: Compound concentration 1000.0 nM
[30] = biological target: Aurora kinase B (Homo sapiens) (UniProt Q96GD4); settings: Compound concentration 1000.0 nM
[31] = tested on: Mast/stem cell growth factor receptor Kit (Homo sapiens), P10721 [D816H]; settings: Compound concentration 1000.0 nM
[32] = biological target: Calcium-dependent protein kinase 1 (Plasmodium falciparum) (UniProt P62344); settings: Compound concentration 1000.0 nM
[33] = biological target: Serine/threonine-protein kinase 17B (Homo sapiens) (UniProt O94768); settings: Compound concentration 1000.0 nM
[34] = tested on: Tyrosine-protein kinase ABL1 (Homo sapiens), P00519 [Q252H]; settings: Compound concentration 1000.0 nM
[35] = biological target: Serine/threonine-protein kinase MARK2 (Homo sapiens) (UniProt Q7KZI7); settings: Compound concentration 1000.0 nM
[36] = tested on: Hepatocyte growth factor receptor (Homo sapiens), P08581 [M1250T]; settings: Compound concentration 1000.0 nM
[37] = biological target: Dual specificity mitogen-activated protein kinase kinase 3 (Homo sapiens) (UniProt P46734); settings: Compound concentration 1000.0 nM
[38] = biological target: Tyrosine-protein kinase ITK/TSK (Homo sapiens) (UniProt Q08881); settings: Compound concentration 1000.0 nM
[39] = tested on: Receptor-type tyrosine-protein kinase FLT3 (Homo sapiens), P36888 [D835H]; settings: Compound concentration 1000.0 nM
[40] = tested on: Epidermal growth factor receptor (Homo sapiens), P00533 [L858R]; settings: Compound concentration 1000.0 nM
[41] = biological target: 5-hydroxytryptamine receptor 1B (Homo sapiens) (UniProt P28222); settings: Compound concentration 10.0 uM
[42] = biological target: Serine/threonine-protein kinase MRCK gamma (Homo sapiens) (UniProt Q6DT37); settings: Compound concentration 1000.0 nM
[43] = biological target: Wee1-like protein kinase 2 (Homo sapiens) (UniProt P0C1S8); settings: Compound concentration 1000.0 nM
[44] = biological target: Mitogen-activated protein kinase kinase kinase 20 (Homo sapiens) (UniProt Q9NYL2); settings: Compound concentration 1000.0 nM
[45] = biological target: 1-phosphatidylinositol 3-phosphate 5-kinase (Homo sapiens) (UniProt Q9Y2I7); settings: Compound concentration 1000.0 nM

Serine/threonine-protein kinase 25 (Homo sapiens), sequence (O00506 whole entry, looked up): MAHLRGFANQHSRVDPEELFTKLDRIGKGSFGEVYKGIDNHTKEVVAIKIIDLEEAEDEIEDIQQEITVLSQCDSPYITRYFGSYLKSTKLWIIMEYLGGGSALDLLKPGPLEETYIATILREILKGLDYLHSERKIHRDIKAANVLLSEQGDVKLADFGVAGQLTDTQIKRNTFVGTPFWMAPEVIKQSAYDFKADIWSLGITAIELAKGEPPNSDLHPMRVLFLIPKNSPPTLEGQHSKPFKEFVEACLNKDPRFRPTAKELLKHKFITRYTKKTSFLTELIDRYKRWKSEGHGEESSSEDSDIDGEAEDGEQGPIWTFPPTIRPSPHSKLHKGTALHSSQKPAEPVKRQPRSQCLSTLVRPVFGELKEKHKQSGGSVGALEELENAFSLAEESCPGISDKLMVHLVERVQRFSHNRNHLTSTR
Calcium-dependent protein kinase 1 (Plasmodium falciparum), sequence (P62344 2-524 limits assumed): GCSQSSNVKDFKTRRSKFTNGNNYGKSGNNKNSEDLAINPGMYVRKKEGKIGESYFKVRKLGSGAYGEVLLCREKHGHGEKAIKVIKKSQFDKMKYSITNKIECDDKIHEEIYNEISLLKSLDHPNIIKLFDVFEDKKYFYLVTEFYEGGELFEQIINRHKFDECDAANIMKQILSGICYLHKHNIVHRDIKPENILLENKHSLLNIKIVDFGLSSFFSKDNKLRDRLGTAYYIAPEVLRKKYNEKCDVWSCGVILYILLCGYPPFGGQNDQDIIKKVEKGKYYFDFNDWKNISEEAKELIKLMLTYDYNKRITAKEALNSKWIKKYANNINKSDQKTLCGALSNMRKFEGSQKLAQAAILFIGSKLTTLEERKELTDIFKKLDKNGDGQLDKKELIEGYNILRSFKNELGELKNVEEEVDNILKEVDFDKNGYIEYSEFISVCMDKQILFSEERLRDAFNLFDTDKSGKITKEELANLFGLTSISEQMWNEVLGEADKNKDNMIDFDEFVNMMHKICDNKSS
Mitogen-activated protein kinase 8 (Homo sapiens), sequence (P45983 whole entry): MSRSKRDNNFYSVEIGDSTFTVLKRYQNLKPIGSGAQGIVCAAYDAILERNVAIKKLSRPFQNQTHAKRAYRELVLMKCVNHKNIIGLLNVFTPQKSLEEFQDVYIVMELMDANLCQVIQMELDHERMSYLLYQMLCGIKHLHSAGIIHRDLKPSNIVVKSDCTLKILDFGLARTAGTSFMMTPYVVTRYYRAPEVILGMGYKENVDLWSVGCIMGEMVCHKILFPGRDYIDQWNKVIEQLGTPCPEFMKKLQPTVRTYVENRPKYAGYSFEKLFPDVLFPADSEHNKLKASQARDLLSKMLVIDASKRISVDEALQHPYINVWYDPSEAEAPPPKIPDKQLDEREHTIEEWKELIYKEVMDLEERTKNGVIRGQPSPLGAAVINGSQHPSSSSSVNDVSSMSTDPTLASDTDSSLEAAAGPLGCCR
Mast/stem cell growth factor receptor Kit (Homo sapiens), P10721 [D816H], sequence (P10721 whole entry D816H): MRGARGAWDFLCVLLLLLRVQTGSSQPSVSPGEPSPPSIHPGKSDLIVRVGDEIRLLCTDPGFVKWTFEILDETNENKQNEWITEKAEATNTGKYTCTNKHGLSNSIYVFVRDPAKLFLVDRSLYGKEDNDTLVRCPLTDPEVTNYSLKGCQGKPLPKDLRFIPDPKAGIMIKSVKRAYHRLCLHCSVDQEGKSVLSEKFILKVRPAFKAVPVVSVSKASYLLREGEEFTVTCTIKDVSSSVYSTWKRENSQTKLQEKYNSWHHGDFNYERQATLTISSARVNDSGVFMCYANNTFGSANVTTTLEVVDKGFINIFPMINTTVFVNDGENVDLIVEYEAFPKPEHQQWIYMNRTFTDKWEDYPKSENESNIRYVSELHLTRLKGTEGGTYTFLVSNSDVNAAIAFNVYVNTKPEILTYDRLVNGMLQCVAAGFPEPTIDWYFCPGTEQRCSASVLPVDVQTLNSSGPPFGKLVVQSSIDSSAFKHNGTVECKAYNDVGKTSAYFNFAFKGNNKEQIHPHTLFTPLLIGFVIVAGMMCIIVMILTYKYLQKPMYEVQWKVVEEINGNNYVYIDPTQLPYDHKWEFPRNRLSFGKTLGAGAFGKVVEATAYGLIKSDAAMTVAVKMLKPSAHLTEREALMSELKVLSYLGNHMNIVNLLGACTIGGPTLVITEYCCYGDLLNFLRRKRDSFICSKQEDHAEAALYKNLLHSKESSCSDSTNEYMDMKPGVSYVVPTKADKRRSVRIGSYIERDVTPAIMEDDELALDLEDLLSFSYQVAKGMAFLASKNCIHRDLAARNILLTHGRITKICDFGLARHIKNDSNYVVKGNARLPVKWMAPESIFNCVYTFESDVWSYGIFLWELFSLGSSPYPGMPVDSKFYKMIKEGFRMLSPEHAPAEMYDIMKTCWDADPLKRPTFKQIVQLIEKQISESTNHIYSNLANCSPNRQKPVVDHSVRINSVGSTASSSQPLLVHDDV
Serine/threonine-protein kinase MARK2 (Homo sapiens), sequence (Q7KZI7 whole entry): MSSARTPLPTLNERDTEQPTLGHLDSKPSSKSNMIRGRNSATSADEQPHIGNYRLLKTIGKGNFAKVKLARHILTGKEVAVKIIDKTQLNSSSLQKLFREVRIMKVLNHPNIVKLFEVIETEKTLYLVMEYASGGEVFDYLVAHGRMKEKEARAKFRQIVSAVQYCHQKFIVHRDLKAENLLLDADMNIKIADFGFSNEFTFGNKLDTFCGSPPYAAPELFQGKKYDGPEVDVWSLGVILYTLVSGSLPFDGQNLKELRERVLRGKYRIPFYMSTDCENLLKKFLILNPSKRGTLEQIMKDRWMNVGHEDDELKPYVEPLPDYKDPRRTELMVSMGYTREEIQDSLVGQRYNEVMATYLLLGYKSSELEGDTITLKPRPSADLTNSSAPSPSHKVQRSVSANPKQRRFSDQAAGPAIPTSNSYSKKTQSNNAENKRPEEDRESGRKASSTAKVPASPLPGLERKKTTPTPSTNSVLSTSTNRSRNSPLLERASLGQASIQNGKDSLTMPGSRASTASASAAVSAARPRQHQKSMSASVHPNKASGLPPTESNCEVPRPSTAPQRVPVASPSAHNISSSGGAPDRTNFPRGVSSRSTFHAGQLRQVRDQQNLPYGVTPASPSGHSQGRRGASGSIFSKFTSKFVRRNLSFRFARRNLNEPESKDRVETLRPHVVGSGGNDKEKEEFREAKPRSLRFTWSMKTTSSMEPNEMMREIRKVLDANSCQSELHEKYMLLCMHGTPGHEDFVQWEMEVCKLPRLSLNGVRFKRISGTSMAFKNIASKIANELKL
STE20-like serine/threonine-protein kinase (Homo sapiens), sequence (Q9H2G2 whole entry, looked up): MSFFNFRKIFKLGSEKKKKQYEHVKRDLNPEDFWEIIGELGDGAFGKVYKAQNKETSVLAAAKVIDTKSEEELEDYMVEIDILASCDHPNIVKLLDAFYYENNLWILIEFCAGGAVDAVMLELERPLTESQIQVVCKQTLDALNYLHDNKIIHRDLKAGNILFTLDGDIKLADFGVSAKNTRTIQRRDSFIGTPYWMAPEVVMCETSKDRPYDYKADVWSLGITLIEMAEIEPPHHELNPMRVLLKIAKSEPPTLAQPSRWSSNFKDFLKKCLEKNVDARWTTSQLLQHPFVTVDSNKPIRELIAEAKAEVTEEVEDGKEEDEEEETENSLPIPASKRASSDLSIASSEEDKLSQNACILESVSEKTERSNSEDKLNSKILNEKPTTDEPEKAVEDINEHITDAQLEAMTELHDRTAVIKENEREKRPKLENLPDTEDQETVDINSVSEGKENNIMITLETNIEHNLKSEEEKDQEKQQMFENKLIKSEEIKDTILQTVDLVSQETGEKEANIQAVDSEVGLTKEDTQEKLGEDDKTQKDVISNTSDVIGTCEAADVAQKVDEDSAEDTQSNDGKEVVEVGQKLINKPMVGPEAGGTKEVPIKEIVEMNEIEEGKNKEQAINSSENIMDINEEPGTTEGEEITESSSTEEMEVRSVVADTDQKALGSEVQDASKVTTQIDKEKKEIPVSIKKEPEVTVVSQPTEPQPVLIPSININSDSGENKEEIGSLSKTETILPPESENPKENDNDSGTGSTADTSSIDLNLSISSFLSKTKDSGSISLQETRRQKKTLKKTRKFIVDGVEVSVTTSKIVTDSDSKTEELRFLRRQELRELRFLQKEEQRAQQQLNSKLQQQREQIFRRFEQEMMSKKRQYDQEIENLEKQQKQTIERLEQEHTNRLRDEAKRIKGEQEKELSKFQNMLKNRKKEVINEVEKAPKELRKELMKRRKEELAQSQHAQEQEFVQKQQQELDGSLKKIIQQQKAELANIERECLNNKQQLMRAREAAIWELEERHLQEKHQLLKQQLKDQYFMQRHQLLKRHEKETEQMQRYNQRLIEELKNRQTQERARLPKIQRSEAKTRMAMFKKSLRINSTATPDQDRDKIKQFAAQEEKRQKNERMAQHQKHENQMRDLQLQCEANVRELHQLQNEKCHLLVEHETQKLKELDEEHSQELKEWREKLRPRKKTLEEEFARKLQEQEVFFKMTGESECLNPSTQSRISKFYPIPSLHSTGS
Mitogen-activated protein kinase kinase kinase 2 (Homo sapiens), sequence (Q9Y2U5 whole entry): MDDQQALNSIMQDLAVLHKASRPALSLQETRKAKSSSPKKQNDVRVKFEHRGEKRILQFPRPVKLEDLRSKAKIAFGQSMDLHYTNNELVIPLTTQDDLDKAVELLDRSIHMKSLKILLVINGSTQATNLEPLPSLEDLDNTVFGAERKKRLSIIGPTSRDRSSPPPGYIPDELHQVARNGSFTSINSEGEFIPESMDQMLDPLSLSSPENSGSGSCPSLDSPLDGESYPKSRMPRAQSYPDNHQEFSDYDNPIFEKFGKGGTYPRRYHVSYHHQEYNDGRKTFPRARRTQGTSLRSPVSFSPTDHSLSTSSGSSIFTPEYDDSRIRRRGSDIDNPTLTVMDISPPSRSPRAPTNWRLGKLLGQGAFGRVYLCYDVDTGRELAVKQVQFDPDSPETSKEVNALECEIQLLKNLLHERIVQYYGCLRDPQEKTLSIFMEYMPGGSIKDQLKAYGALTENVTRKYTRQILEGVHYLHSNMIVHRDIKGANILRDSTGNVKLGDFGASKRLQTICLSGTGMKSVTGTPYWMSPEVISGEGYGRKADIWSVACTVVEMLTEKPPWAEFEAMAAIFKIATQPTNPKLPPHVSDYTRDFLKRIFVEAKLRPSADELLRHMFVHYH
Mast/stem cell growth factor receptor Kit (Homo sapiens), P10721 [V559D,T670I], sequence (P10721 whole entry V559D/T670I): as the sequence (P10721 whole entry D816H) above, with V559D, T670I, H816D counted along it

Cc1nc(N2CC[C@@H](O)C2)ncc1-c1cc(C(F)(F)F)cc2[nH]ncc12 [TP-004]
residual activity [1]: 88%
residual activity [2]: 98%
residual activity [3]: 100%
residual activity [4]: 100%
residual activity [5]: 42%
inhibition [6]: 15.9%
residual activity [7]: 100%
residual activity [8]: 100%
residual activity [9]: 91%
residual activity [10]: 83%
residual activity [11]: 60%
residual activity [12]: 100%
residual activity [13]: 99%
residual activity [14]: 100%
residual activity [15]: 100%
inhibition [16]: 1.12%
residual activity [17]: 100%
residual activity [18]: 63%
residual activity [19]: 100%
residual activity [20]: 90%
residual activity [21]: 100%
residual activity [22]: 94%
residual activity [23]: 67%
residual activity [24]: 96%
residual activity [25]: 71%
residual activity [26]: 68%
residual activity [27]: 91%
residual activity [28]: 100%
residual activity [29]: 100%
residual activity [30]: 100%
residual activity [31]: 53%
residual activity [32]: 100%
residual activity [33]: 99%
residual activity [34]: 79%
residual activity [35]: 100%
residual activity [36]: 92%
residual activity [37]: 90%
residual activity [38]: 64%
residual activity [39]: 100%
residual activity [40]: 77%
inhibition [41]: 22.3%
residual activity [42]: 100%
residual activity [43]: 100%
residual activity [44]: 100%
residual activity [45]: 88%
